Data set [1] in a line: Volume of distribution at steady state in rat at 0.5 mg/kg, iv and 1 mg/kg, po. The format is ADME, organism-based. The settings on record: in vivo, read-out: Vdss.
Data set [2] is described as follows: Fraction unbound in rat blood. In kind it is ADME, tissue-based.
The nature of data set [3]: Blood clearance in rat at 0.5 mg/kg, iv and 1 mg/kg, po. In kind it is ADME, organism-based.
For data set [4], the target named is T1, 5-hydroxytryptamine receptor 2C (Homo sapiens, UniProt P28335).
T1 sequence (P28335 whole entry): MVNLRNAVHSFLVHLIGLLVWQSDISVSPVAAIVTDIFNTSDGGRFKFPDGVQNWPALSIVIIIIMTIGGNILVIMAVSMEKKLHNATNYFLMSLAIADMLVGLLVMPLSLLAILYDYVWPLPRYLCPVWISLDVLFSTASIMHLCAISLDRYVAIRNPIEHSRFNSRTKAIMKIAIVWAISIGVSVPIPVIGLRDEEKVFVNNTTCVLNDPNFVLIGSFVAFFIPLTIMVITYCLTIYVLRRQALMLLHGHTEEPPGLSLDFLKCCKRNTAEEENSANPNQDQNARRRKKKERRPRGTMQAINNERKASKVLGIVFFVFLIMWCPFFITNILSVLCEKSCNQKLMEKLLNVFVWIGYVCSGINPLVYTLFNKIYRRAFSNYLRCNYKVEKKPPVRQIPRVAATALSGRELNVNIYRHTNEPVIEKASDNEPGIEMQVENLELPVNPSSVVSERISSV
In words: Antagonist activity at human 5HT2C receptor expressed in human SHSY5Y cells by FLPR assay. The format is functional, cell-based, SH-SY5Y. The conditions noted are these: for pKi: sh-sy5y.

Data set [5] is described as follows: Fraction unbound in rat brain. In kind it is ADME, tissue-based.
A short description of data set [6]: Oral bioavailability in rat at 1 mg/kg. In kind it is ADME, organism-based. The conditions noted are these: in vivo.
The target in another data set is Histamine H1 receptor (Homo sapiens, UniProt P35367). In words: Antagonist activity at human recombinant histamine H1 receptor expressed in CHO cells by FLPR assay. In kind it is functional, cell-based.
Sequence of Histamine H1 receptor (P35367 whole entry): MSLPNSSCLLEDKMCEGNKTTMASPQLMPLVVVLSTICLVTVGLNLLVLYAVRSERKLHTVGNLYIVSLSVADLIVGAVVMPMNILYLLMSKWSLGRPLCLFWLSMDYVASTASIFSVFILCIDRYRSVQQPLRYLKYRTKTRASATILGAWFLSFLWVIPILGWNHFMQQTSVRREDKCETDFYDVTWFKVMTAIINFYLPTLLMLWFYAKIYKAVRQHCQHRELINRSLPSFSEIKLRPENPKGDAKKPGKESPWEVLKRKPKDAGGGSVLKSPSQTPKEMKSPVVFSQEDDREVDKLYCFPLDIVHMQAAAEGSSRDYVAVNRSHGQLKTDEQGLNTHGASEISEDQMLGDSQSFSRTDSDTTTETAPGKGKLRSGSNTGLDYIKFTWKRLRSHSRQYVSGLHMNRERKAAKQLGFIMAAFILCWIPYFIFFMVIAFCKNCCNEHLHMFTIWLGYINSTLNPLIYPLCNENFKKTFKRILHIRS
Data set [7] deals with 5-hydroxytryptamine receptor 2B (Homo sapiens, UniProt P41595). In words: Antagonist activity at human 5HT2B receptor expressed in human SHSY5Y cells by FLPR assay. In kind it is functional, cell-based, SH-SY5Y.
Sequence of 5-hydroxytryptamine receptor 2B (P41595 whole entry): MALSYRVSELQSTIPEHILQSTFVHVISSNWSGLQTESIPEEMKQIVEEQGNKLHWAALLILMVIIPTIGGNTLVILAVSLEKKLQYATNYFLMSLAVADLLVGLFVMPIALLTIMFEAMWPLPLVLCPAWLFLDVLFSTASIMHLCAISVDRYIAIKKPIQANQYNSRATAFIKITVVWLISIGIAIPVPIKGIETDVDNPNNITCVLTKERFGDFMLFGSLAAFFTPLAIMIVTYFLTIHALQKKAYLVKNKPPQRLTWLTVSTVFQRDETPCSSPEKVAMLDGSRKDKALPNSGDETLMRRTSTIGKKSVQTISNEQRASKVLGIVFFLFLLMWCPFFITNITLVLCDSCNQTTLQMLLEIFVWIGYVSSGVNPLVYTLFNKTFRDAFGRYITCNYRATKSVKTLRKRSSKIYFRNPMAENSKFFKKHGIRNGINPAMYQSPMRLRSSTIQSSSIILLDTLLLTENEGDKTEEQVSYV
Data set [8] can be described thus: AUC (0 to 8 hrs) ratio of drug level in brain to blood in rat at 1 mg/kg, po. In kind it is ADME, organism-based. Further details: dose 1 mg/kg, route oral. The conditions noted are these: read-out: Ratio AUC.
Data set [9] can be described thus: Half life in rat at 0.5 mg/kg, iv and 1 mg/kg, po. The format is ADME, organism-based. The settings on record: in vivo.
Data set [10] addresses 5-hydroxytryptamine receptor 2A (Homo sapiens, UniProt P28223). The experiment in a line: Antagonist activity at human 5HT2A receptor expressed in HEK cells assessed as intracellular calcium luminescence by aequorin assay. In kind it is functional, cell-based, HEK293. In general terms: Calcium assays in cells follow changes in intracellular calcium, usually with a dye or a luminescent sensor.

Data set [11] has as its target T2, Alpha-1B adrenergic receptor (Homo sapiens, UniProt P35368).
T2 sequence (P35368 whole entry): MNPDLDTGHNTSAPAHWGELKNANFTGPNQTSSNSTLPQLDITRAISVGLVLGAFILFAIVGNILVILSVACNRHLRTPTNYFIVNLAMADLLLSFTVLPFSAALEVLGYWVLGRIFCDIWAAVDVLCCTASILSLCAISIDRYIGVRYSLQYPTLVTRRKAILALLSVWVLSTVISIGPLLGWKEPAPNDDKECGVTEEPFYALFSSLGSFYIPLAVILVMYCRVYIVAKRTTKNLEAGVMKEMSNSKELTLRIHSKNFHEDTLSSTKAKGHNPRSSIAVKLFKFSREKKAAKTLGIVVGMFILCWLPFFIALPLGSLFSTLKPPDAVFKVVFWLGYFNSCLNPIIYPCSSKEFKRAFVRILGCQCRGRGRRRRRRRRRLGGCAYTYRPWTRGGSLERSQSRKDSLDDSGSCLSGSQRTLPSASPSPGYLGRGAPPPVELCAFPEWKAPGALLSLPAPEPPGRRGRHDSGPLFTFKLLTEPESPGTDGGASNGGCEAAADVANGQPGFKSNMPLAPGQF
The experiment in a line: Antagonist activity at human adrenergic Alpha-1B receptor assessed as intracellular calcium luminescence by cell based aequorin assay. The format is functional.

The target of data set [12] is T3, Alpha-1A adrenergic receptor (Homo sapiens, UniProt P35348).
T3 sequence (P35348 whole entry): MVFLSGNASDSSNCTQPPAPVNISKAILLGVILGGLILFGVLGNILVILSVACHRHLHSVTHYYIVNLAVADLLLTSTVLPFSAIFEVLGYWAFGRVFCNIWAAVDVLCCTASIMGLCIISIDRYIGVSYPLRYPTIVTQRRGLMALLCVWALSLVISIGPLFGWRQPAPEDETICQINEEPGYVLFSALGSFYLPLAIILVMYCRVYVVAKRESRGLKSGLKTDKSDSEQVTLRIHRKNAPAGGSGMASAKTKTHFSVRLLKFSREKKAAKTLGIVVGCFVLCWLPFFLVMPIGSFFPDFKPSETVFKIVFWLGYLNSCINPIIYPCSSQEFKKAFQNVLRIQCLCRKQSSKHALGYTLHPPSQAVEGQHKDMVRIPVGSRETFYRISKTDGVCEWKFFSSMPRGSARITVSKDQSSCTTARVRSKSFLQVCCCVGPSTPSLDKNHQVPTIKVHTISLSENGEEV
The experiment in a line: Antagonist activity at human adrenergic alpha1A receptor assessed as intracellular calcium luminescence by cell based aequorin assay. In kind it is functional.

Data set [13] is described as follows: Blood clearance in rat at 1 mg/kg, iv and 3 mg/kg, po. The format is ADME, organism-based.
Data set [14] can be described thus: Oral bioavailability in rat at 3 mg/kg. The settings on record: in vivo. The format is ADME, organism-based.
Data set [15] is described as follows: Half life in rat at 1 mg/kg, iv and 3 mg/kg, po. The format is ADME, organism-based. The conditions noted are these: in vivo.
Data set [16] in a line: Volume of distribution at steady state in rat at 1 mg/kg, iv and 3 mg/kg, po. In kind it is ADME, organism-based. The settings on record: in vivo, read-out: Vdss.
The nature of data set [17]: AUC (0 to 8 hrs) ratio of drug level in brain to blood in rat at 3 mg/kg, po. The format is ADME, organism-based. Also on record: dose 3 mg/kg, route oral. The conditions noted are these: read-out: Ratio AUC.

Molecules are shown by their SMILES.

Sequence of 5-hydroxytryptamine receptor 2A (P28223 whole entry): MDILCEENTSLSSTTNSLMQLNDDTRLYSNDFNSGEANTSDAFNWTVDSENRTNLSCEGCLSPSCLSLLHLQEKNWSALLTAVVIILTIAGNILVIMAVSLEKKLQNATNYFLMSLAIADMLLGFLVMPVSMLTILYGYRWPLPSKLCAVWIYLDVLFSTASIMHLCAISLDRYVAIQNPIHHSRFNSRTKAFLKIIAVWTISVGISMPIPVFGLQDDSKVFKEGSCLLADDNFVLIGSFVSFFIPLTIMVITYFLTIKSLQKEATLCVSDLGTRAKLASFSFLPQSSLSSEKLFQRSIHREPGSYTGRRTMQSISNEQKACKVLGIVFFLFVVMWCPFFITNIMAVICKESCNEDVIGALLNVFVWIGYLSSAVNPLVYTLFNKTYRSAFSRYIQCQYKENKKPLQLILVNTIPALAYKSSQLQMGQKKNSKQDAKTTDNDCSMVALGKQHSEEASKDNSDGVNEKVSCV

The term fraction unbound denotes free concentration divided by total concentration. The low end stands for little free substance, the high end for much free substance. Usually Ki stands for the dissociation constant of the complex between target and ligand, obtained from inhibition or displacement. As usually defined, the bioavailability is dose-corrected exposure relative to a reference, in per cent. The term half-life denotes the time needed for the level to fall by half in the phase considered. A lower half-life goes with rapid decline. Consider `CC(C)(CN1CCN(C2=Cc3ccccc3Cn3cc(F)nc32)CC1)C(=O)O`, for which, in data set [1], the Vd stood at 1.1 L/kg. Further, the fraction unbound was found to be 0.4 in data set [2] and 0.45 in data set [5]. In addition, the clearance in data set [3] amounted to 10 mL/min/kg. The Ki in data set [4] was 316 nM; on Histamine H1 receptor it was 39.8 nM; in [7] it was 316 nM; in [10] it was 100 nM. This compound came in with a bioavailability in data set [6] of 45%. Also, the Kp in data set [8] was determined as 0.04. The compound also had a half-life in data set [9] of 1.8 h.
For `CC1CN(C2=Cc3ccccc3Cn3ccnc32)CC(C)N1CCC(=O)O` (stereo not drawn), the inhibition constant Ki was 158 nM in data set [4], 20 nM on Histamine H1 receptor, 631 nM in [7] and 39.8 nM in data set [10].
For the compound `C1=C(N2CCNCC2)c2nccn2Cc2ccccc21`, the Ki in data set [4] is 20 nM; on Histamine H1 receptor it was 0.631 nM; in data set [11], 3.16 nM; in data set [7], 316 nM; in data set [12], 3.98 nM; in data set [10], 7.94 nM.
As to `Cc1nc2n(c1C)Cc1ccccc1C=C2N1CCN(CC(C)(C)C(=O)O)CC1`, the Ki is 63.1 nM in data set [4], 39.8 nM on Histamine H1 receptor, 15.8 nM in [7] and 398 nM in data set [10].
For `Cc1cn2c(n1)C(N1CCN(CC(C)(C)C(=O)O)CC1)=Cc1ccccc1C2` the same measures were 31.6 nM, 50.1 nM, 63.1 nM and 126 nM.
For `O=C(O)CCN1CCN(C2=Cc3ccccc3Cn3ccnc32)CC1` the same measures were above 794 nM, 50.1 nM, above 794 nM and 316 nM.
For `COc1cnc2n1Cc1ccccc1C=C2N1CCN(CC(C)(C)C(=O)O)CC1` the same measures were 501 nM, 126 nM, 158 nM and 251 nM.
As usually defined, the pKi is the Ki on a negative log10 scale, so that one unit is a factor of ten. As to `O=C(O)C1CC(N2CCN(C3=Cc4ccccc4Cn4ccnc43)CC2)C1` (single isomer, unassigned; isomer 2), the pKi in data set [4], in [7] (sh-sy5y) and in data set [10] (hek293) was below 6.1 throughout. The Ki on Histamine H1 receptor was 25.1 nM.
Take `O=C(O)C1CCC(N2CCN(C3=Cc4ccccc4Cn4ccnc43)CC2)CC1` (stereo in doubt; 16): in [4], the pKi is below 5.7. The Ki is 63.1 nM on Histamine H1 receptor, 25.1 nM in [7] and 501 nM in data set [10].
For the compound `C=C(CN1CCN(C2=Cc3ccccc3Cn3ccnc32)CC1)C(=O)O`, the Ki in [4] is 501 nM; on Histamine H1 receptor, 31.6 nM; in [7], above 794 nM; in data set [10] it was 200 nM.
The matching figures for `O=C(O)C1CC(N2CCN(C3=Cc4ccccc4Cn4ccnc43)CC2)C1` (stereo in doubt; 13): above 794 nM, 12.6 nM, above 794 nM and above 794 nM.
In turn, `CC(C)(CN1CCN(C2=Cc3ccccc3Cn3cc(Cl)nc32)CC1)C(=O)O` had a Ki in [7] of 100 nM.
For `O=C(O)C1CCC(N2CCN(C3=Cc4ccccc4Cn4ccnc43)CC2)CC1` (single isomer, unassigned; isomer 1), the Ki in [4] was above 2000 nM; on Histamine H1 receptor it was 126 nM; in data set [7] it was 39.8 nM; in data set [10], 631 nM.
For `CC(C)(CN1CCCN(C2=Cc3ccccc3Cn3ccnc32)CC1)C(=O)O` the same measures were above 2000 nM, 50.1 nM, above 2000 nM and above 5010 nM.
Regarding `CC(C)(CN1CCN(C2=Cc3ccccc3Cn3ccnc32)CC1)C(=O)O`, the fraction unbound in [2] and in data set [5] was above 0.5 in each case. Besides, the Ki was 50.1 nM in data set [4], 25.1 nM on Histamine H1 receptor, 1580 nM in data set [7] and 79.4 nM in data set [10]. The clearance in [13] is 38 mL/min/kg. In data set [14], this compound registered a bioavailability of 61%. For the same compound, the half-life in data set [15] was 0.7 h. Further, the Vd in data set [16] came out at 1.9 L/kg. Besides, in [17], the Kp came out at 0.02.

(Values after ChEMBL document CHEMBL1221290, “Novel imidazobenzazepine derivatives as dual H1/5-HT2A antagonists for the treatment of sleep disorders” (Bioorg Med Chem Lett, 2010).)
